In PMC12090182, “Repurposing of the RIPK1-Selective Benzo[1,4]oxazepin-4-one Scaffold for the Development of a Type III LIMK1/2 Inhibitor” (ACS Chemical Biology, 2025):
Where two headings read alike, the source gives them in different places.

What was measured:
Assay in all cases: biochemical
Format in all cases: binding
[1] = biological target: 468 kinases including some pathogenic mutants (Homo sapiens, UniProt O15146); conditions: MUSK (Entrez MUSK), 100 nM; read-out: Percent Control
[2] = biological target: 468 kinases including some pathogenic mutants (Homo sapiens, UniProt O60331); conditions: PIP5K1C (Entrez PIP5K1C), 1000 nM; read-out: Percent Control
468 kinases including some pathogenic mutants (Homo sapiens, UniProt O60331), sequence (O60331 whole entry, change not shown): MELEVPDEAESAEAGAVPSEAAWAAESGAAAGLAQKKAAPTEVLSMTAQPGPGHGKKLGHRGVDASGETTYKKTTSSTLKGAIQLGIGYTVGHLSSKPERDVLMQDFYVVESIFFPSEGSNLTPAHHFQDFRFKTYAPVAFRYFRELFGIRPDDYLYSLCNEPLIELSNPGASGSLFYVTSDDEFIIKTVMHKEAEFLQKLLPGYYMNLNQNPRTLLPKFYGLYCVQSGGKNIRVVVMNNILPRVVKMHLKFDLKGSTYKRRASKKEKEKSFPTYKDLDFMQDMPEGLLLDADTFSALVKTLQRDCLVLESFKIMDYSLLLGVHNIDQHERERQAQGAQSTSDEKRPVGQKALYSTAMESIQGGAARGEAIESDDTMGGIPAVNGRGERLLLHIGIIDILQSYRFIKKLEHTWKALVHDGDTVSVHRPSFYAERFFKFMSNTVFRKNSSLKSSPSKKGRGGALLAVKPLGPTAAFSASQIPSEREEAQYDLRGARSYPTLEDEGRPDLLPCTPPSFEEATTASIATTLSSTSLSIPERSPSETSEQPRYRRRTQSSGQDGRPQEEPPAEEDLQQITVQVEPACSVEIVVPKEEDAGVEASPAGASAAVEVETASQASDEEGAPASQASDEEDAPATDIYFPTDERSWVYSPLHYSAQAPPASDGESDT

[3] = biological target: 468 kinases including some pathogenic mutants (Homo sapiens, UniProt O94768); conditions: DRAK2 (Entrez STK17B), 100 nM; read-out: Percent Control
[4] = biological target: 468 kinases including some pathogenic mutants (Homo sapiens, UniProt P10721, D816H); conditions: read-out: Percent Control
[5] = biological target: 468 kinases including some pathogenic mutants (Homo sapiens, UniProt P12931); conditions: SRC (Entrez SRC), 1000 nM; read-out: Percent Control
[6] = biological target: 468 kinases including some pathogenic mutants (Homo sapiens, UniProt P16591); conditions: FER (Entrez FER), 100 nM; read-out: Percent Control
468 kinases including some pathogenic mutants (Homo sapiens, UniProt P16591), sequence (P16591 whole entry, change not shown): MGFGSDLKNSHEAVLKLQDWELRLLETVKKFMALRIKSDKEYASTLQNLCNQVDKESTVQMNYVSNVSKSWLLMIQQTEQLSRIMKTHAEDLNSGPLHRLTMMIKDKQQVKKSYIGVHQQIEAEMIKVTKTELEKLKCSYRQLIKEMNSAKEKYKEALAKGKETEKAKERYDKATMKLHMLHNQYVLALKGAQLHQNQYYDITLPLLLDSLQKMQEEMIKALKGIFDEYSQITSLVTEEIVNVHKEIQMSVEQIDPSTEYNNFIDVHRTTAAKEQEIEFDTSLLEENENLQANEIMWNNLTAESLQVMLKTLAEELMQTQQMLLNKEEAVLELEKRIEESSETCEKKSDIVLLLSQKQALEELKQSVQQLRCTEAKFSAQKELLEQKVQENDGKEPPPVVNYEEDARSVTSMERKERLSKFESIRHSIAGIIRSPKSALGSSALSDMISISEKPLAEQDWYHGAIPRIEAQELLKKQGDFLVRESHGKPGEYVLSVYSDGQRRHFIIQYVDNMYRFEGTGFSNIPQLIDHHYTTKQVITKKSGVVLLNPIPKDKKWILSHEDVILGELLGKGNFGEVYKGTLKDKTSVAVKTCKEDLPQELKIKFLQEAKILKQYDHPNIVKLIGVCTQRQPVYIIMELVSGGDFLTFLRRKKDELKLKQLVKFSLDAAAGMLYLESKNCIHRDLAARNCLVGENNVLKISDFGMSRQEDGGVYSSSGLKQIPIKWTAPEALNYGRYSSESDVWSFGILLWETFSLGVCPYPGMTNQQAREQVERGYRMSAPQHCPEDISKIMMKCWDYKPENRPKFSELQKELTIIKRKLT

[7] = biological target: 468 kinases including some pathogenic mutants (Homo sapiens, UniProt P32298); conditions: GRK4 (Entrez GRK4), 100 nM; read-out: Percent Control
[8] = biological target: 468 kinases including some pathogenic mutants (Homo sapiens, UniProt P37173); conditions: TGFBR2 (Entrez TGFBR2), 1000 nM; read-out: Percent Control
[9] = biological target: 468 kinases including some pathogenic mutants (Homo sapiens, UniProt P42336, C420R); conditions: read-out: Percent Control
468 kinases including some pathogenic mutants (Homo sapiens, UniProt P42336, C420R), sequence (P42336 whole entry C420R): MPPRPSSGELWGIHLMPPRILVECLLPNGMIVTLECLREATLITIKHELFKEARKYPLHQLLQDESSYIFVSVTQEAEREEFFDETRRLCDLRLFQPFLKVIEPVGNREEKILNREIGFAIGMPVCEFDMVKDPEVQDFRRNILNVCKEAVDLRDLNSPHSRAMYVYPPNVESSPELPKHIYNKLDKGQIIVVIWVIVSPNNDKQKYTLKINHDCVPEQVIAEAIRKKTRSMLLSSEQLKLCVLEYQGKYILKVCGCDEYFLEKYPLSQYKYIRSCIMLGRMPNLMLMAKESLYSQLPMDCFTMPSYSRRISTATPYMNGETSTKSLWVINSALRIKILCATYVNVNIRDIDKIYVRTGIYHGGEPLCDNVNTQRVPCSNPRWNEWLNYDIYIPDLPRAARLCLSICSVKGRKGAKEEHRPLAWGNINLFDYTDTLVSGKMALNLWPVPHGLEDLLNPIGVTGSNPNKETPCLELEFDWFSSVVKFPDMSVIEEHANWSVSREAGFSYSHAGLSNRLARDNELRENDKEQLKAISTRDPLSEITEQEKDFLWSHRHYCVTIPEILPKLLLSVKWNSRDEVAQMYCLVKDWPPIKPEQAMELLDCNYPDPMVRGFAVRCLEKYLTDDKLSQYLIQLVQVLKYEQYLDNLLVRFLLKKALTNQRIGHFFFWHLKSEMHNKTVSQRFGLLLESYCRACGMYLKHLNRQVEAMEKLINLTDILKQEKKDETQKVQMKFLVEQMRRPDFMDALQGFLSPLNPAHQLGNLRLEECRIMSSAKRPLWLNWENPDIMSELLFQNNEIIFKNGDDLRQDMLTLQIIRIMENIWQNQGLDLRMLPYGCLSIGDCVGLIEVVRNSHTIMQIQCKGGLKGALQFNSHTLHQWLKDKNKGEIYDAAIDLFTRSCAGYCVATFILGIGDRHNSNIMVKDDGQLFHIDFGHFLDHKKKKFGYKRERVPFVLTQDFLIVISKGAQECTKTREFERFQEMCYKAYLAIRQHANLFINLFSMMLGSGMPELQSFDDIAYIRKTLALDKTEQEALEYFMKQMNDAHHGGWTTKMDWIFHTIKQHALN

[10] = biological target: 468 kinases including some pathogenic mutants (Homo sapiens, UniProt P45983); conditions: JNK1 (Entrez MAPK8), 1000 nM; read-out: Percent Control
[11] = biological target: 468 kinases including some pathogenic mutants (Homo sapiens, UniProt P45984); conditions: JNK2 (Entrez MAPK9), 100 nM; read-out: Percent Control
[12] = biological target: 468 kinases including some pathogenic mutants (Homo sapiens, UniProt P51812); conditions: read-out: Percent Control
468 kinases including some pathogenic mutants (Homo sapiens, UniProt P51812), sequence (P51812 whole entry, change not shown): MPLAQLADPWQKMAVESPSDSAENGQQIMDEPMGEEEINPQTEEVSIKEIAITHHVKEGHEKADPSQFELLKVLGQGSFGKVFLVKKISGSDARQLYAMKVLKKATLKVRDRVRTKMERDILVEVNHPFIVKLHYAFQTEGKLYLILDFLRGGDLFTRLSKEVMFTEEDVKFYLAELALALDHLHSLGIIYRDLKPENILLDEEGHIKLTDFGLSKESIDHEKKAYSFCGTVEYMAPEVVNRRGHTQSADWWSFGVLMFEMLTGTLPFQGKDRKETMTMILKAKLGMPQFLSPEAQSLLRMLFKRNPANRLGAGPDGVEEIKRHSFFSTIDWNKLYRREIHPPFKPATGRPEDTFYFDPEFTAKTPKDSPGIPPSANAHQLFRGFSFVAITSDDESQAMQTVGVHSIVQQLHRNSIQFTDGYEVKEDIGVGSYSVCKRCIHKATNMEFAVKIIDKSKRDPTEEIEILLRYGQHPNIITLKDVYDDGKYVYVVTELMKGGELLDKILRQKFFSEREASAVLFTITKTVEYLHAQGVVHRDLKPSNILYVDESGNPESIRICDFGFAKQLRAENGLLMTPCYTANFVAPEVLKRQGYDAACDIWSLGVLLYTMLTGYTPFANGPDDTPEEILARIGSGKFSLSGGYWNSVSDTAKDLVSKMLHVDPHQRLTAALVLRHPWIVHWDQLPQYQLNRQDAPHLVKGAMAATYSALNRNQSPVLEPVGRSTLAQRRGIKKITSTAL

[13] = biological target: 468 kinases including some pathogenic mutants (Homo sapiens, UniProt P51955); conditions: NEK2 (Entrez NEK2), 1000 nM; read-out: Percent Control
468 kinases including some pathogenic mutants (Homo sapiens, UniProt P51955), sequence (P51955 whole entry, change not shown): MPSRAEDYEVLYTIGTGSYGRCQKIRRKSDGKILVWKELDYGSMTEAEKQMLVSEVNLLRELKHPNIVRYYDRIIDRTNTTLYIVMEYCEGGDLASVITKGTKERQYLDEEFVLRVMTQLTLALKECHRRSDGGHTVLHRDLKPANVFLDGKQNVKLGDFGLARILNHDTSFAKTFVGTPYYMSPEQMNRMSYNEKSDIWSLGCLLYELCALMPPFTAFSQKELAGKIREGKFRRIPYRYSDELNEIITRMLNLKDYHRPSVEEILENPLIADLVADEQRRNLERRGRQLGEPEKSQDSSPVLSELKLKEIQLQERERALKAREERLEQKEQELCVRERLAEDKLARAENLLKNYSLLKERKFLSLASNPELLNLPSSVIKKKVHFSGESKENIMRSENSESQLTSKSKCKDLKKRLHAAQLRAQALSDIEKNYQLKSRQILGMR

[14] = biological target: 468 kinases including some pathogenic mutants (Homo sapiens, UniProt Q08881); conditions: ITK (Entrez ITK), 100 nM; read-out: Percent Control
[15] = biological target: 468 kinases including some pathogenic mutants (Homo sapiens, UniProt Q13164); conditions: ERK5 (Entrez MAPK7), 100 nM; read-out: Percent Control
[16] = biological target: 468 kinases including some pathogenic mutants (Homo sapiens, UniProt Q13470); conditions: TNK1 (Entrez TNK1), 100 nM; read-out: Percent Control
[17] = biological target: 468 kinases including some pathogenic mutants (Homo sapiens, UniProt Q15759); conditions: p38-beta (Entrez MAPK11), 100 nM; read-out: Percent Control
[18] = biological target: 468 kinases including some pathogenic mutants (Homo sapiens, UniProt Q16620); conditions: TRKB (Entrez NTRK2), 100 nM; read-out: Percent Control
[19] = biological target: 468 kinases including some pathogenic mutants (Homo sapiens, UniProt Q5VT25); conditions: MRCKA (Entrez CDC42BPA), 100 nM; read-out: Percent Control
[20] = biological target: 468 kinases including some pathogenic mutants (Homo sapiens, UniProt Q6XUX3); conditions: RIPK5 (Entrez DSTYK), 1000 nM; read-out: Percent Control
[21] = biological target: 468 kinases including some pathogenic mutants (Homo sapiens, UniProt Q8IVH8); conditions: MAP4K3 (Entrez MAP4K3), 100 nM; read-out: Percent Control
[22] = biological target: 468 kinases including some pathogenic mutants (Homo sapiens, UniProt Q8TDR2); conditions: STK35 (Entrez STK35), 1000 nM; read-out: Percent Control
[23] = biological target: 468 kinases including some pathogenic mutants (Homo sapiens, UniProt Q8TDX7); conditions: NEK7 (Entrez NEK7), 100 nM; read-out: Percent Control
[24] = biological target: 468 kinases including some pathogenic mutants (Homo sapiens, UniProt Q96NX5); conditions: CAMK1G (Entrez CAMK1G), 100 nM; read-out: Percent Control
468 kinases including some pathogenic mutants (Homo sapiens, UniProt Q96NX5), sequence (Q96NX5 whole entry, change not shown): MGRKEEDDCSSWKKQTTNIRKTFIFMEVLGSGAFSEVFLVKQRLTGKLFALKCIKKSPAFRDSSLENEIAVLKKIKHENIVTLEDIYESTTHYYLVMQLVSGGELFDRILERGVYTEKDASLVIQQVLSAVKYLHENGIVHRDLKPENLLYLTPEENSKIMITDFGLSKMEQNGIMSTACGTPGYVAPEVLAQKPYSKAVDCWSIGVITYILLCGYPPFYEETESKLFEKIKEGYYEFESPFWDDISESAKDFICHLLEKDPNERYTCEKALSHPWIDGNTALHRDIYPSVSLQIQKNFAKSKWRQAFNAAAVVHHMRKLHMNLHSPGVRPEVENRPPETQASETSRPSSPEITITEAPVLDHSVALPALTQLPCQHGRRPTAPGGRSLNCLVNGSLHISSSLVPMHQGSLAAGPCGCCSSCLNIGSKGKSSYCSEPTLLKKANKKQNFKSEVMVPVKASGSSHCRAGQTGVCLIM

[25] = biological target: 468 kinases including some pathogenic mutants (Homo sapiens, UniProt Q9UBE8); conditions: NLK (Entrez NLK), 100 nM; read-out: Percent Control
[26] = biological target: 468 kinases including some pathogenic mutants (Homo sapiens, UniProt Q9UK32); conditions: read-out: Percent Control
468 kinases including some pathogenic mutants (Homo sapiens, UniProt Q9UK32), sequence (Q9UK32 whole entry, change not shown): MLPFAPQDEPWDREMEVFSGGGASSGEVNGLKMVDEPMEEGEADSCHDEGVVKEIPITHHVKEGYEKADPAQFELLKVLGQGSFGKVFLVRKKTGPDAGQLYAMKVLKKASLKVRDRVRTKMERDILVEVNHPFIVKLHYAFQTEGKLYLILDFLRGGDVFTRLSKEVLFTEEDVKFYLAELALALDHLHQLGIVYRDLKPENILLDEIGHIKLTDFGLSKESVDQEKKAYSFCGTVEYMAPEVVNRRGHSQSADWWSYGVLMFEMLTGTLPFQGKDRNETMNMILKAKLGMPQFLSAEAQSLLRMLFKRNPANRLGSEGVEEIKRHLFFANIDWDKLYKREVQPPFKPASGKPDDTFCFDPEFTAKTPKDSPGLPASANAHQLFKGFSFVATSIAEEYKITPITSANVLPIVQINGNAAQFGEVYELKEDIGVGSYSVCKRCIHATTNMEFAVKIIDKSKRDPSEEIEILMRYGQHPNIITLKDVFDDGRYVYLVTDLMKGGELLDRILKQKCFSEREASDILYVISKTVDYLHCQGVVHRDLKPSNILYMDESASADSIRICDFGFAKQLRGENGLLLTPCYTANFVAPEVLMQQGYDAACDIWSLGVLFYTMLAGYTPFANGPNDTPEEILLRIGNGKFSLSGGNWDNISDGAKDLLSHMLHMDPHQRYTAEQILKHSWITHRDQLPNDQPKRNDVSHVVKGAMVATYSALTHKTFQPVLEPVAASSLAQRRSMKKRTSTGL

[27] = biological target: 468 kinases including some pathogenic mutants (Homo sapiens, UniProt Q9UKE5); conditions: TNIK (Entrez TNIK), 100 nM; read-out: Percent Control
[28] = biological target: 468 kinases including some pathogenic mutants (Homo sapiens, UniProt Q9UM73, C1156Y); conditions: read-out: Percent Control
[29] = system: 468 kinases including some pathogenic mutants

CN1C(=O)[C@@H](N2CCc3c(nn(Cc4ccccc4)c3C(N)=O)C2=O)COc2cc(Cl)ccc21 [Compound 10, (S)-2-benzyl-6-(8-chloro-5-methyl-4-oxo-2,3,4,5-tetrahydrobenzo[b][1,4]oxazepin-3-yl)-7-oxo-4,5,6,7-tetrahydro-2H-pyrazolo[3,4-c]pyridine-3-carboxamide]
remaining activity at 0.1 µM [1]: 94% | remaining activity at 1 µM [2]: 100% | remaining activity at 0.1 µM [3]: 84% | remaining activity at 0.1 µM [4]: 100% | remaining activity at 1 µM [5]: 100% | remaining activity at 0.1 µM [6]: 100% | remaining activity at 0.1 µM [7]: 82% | remaining activity at 1 µM [8]: 100% | remaining activity at 0.1 µM [9]: 88% | remaining activity at 1 µM [10]: 100% | remaining activity at 0.1 µM [11]: 80% | remaining activity at 1 µM ([12]; RSK2(Kin.Dom.1-N-terminal) (Entrez RPS6KA3), 1000 nM): 100% | remaining activity at 0.1 µM ([12]; RSK2(Kin.Dom.2-C-terminal) (Entrez RPS6KA3), 100 nM): 74% | remaining activity at 1 µM [13]: 100% | remaining activity at 0.1 µM [14]: 79% | remaining activity at 0.1 µM [15]: 85% | remaining activity at 0.1 µM [16]: 78% | remaining activity at 0.1 µM [17]: 100% | remaining activity at 0.1 µM [18]: 88% | remaining activity at 0.1 µM [19]: 73% | remaining activity at 1 µM [20]: 100% | remaining activity at 0.1 µM [21]: 83% | remaining activity at 1 µM [22]: 100% | remaining activity at 0.1 µM [23]: 77% | remaining activity at 0.1 µM [24]: 72% | remaining activity at 0.1 µM [25]: 91% | remaining activity at 1 µM ([26]; RSK4(Kin.Dom.1-N-terminal) (Entrez RPS6KA6), 1000 nM): 100% | remaining activity at 0.1 µM ([26]; RSK4(Kin.Dom.2-C-terminal) (Entrez RPS6KA6), 100 nM): 90% | remaining activity at 0.1 µM [27]: 100% | remaining activity at 0.1 µM [28]: 93% | Percent Control [29]: 100% | Percent Control ([29]; FLT3(ITD) (Entrez FLT3), 100 nM): 54%
